{"source": "patent US20050019438A1", "about": "“Hop extracts and use thereof in the production of a medicament having estrogenic properties” (priority 2001, published 2005)", "test_system": "Ishikawa cell line (Var. I) of human endometrial adenocarcinoma", "experiment": "Ishikawa cell alkaline phosphatase assay of estrogenic activity", "format": "cell-based", "description": "The in vitro assay used was developed by Littlefield in 1990 (Endocrinology 1990, 127, p. 2757-2762).\nThe variant of the cell line used is sensitive to estrogens, to which it responds not through a proliferative activity, but through an activity which stimulates an enzyme, alkaline phosphatase. This assay provides, in a sensitive and specific manner, information on the estrogenic activity since, among steroids, only the estrogens respond to this assay and succeed in stimulating the enzyme activity. The estrogenic activity can also be triggered by non-steroidal substances having a “estrogen-like” effect, such as phytoestrogens. The estrogenic responses obtained below are blocked by the reference anti-estrogen brought into contact, which indicates an estrogen receptor-mediated activity.\nThe model is an Ishikawa cell line (Var. I) of human endometrial adenocarcinoma (established by Nishida: Acta Obstet Gynaec Jap 1985, 37: 1103-1111).\nSpecifically, alkaline phosphatase hydrolyzes p-nitrophenol phosphate to p-nitrophenol, which gives a colored reaction.\nThe assay consists in measuring the absorbance at 405 nm after incubation for 72 h.\nTwo controls were used: • positive control=17β-estradiol, • negative control=antiestrogen ICI182, 780 from Zeneca. […]", "data": [{"smiles": "C[C@]12CC[C@@H]3c4ccc(O)cc4CC[C@H]3[C@@H]1CC[C@@H]2O", "note": "[17β-Estradiol, 17β-estradiol]", "values": [{"measurement": "estrogenic activity / response (in words)", "setting": "alkaline phosphatase activation in Ishikawa cells, absorbance at 405 nm after 72 h", "result": "expected dose-effect relationship"}]}, {"smiles": "C[C@]12CC[C@@H]3c4ccc(O)cc4C[C@@H](CCCCCCCCC[S+]([O-])CCCC(F)(F)C(F)(F)F)[C@H]3[C@@H]1CC[C@@H]2O", "note": "(stereo partly drawn) [reference anti-estrogen]", "values": [{"measurement": "blocking of the estrogenic responses by the anti-estrogen", "setting": "reference anti-estrogen brought into contact, indicates estrogen receptor-mediated activity", "result": "blocked"}]}]}
